Data as given in patent US20240415804A1, “METHOD OF TREATING PANCREATIC CANCER” (University of South Florida, priority 2022, published 2024).

Experiments:
miR-155 [1] = experiment: miR-155 gene expression in tumors of KC-HPC mice; type: in vivo, mouse; conditions: API 25 mg/kg IP three times per week for 17 days, vs vehicle
Description: To build on these findings, the inventors then used a novel pancreatic cancer cell line, UN-KC-6141, that resembles human PC due to its expression of a mutated Kras and generated mice harboring these tumor cells, called KC-HPC mice. Such mice were treated with API at a dose of 25 mg/kg (IP) three times per week for 17 days. The inventors examined if API also targets miR-155 and regulates SHIP-1 in the tumors from KC-HPC mouse model. […] The HPC models were euthanized 21-28 days post-injection, while the KC-HPC models were euthanized 16-17 days post-injection. miRNA extraction of PC cells (treated with miR-155 inhibitor and/or API), BM and digested pancreatic tumors cells was performed using a mirVana miRNA Isolation Kit (Applied Biosystems, Waltham, MA, USA) as per the manufacturer's instructions. miRNA was reverse transcribed into cDNA using TaqMan miRNA reverse transcription kit (Applied Biosystems) with gene-specific stem-loop RT primers according to the manufacturer's instructions. cDNA was then loaded onto either mmu-miR-155 or ipu-miR-155 TaqMan miRNA assays (Assay IDs: 002571 and 467534_mat) using TaqMan Fast Universal PCR Master mix (Applied Biosystems) and miR-155 detected with an Eppendorf Master cycler real plex 4. […]

miR-155 [2] = experiment: miR-155 gene expression by RT-qPCR in MiaPaCa-2 cells; type: cell-based, human; conditions: API 40 μM, 24 h, vs DMSO vehicle
Description: MiR-155 is known to be overexpressed in different cancers, including PC^21, 23. The inventors first assessed whether apigenin could modulate the expression of miR-155 in PC cells. Murine PC cell lines Panc02 and UN-KC-6141 as well as the human PC cell line MiaPaCa-2 were treated with API (40 μM) or DMSO vehicle for 24 h and the expression of miR-155 was examined using RT-qPCR assay. […] Since API is known to inhibit the growth of cancer cells, including PC cells^39-43, 47-50, the same PC cell lines were treated with API (40 μM) or DMSO (vehicle) for 24 h and examined cell viability using MTT assay. […] Moreover, Panc02 and UN-KC-6141 cells were then treated with API at a dose dependent concentration (10, 20, 30, 40, 50 μM) and detected apoptosis using flow cytometry (Annexin V and PI).
miR-155 is implicated in the development of pancreatic tumors from pancreatic intraepithelial neoplasia (PanIN) lesions, and is overexpressed in PC^23. The inventors examined whether the depletion of miR-155 modulated PC viability. Murine and human PC cell lines were transfected with miR-155 inhibitor (i.e., MMU-MIR-155-5P/HSA-MIR-155-5P) and scrambled miRNA at a concentration of 100 nM for 24 h and cell viability determined using an MTT assay. The expression of miR-155 was examined using an RT-qPCR assay as well. […]

PC-bearing mice = conditions: cited from earlier work
[3] = PC mouse model treated with API, earlier report (ref 12)
[4] = PC-bearing mice, previous results (ref 12)

## O=c1cc(-c2ccc(O)cc2)oc2cc(O)cc(O)c12 [API, 40,5,7-Trihydroxyflavone, 5,7-Dihydroxy-2-(4-hydroxyphenyl)-4-benzopyrone]
miR-155 [1]
  miR-155 gene expression in tumor: significantly reduced
miR-155 [2]
  miR-155 gene expression: significantly suppressed
PC-bearing mice; PC mice, previous report (refs 12, 55)
  tumor weights: decreases
PC-bearing mice; [3]
  intratumoral Treg percentages: significant reduction
  splenic Treg percentages: significant reduction
PC-bearing mice; [4]
  IFN-γ production from intratumoral CD8+ T cells: increases
  granzyme B: increases
  perforin: increases
